Results: ChEMBL document CHEMBL6078706, “Deciphering the Comprehensive Structure-Activity Relationship of Sunshinamide for Breast Cancer Therapy through Dual Modulation of Apoptotic and Ferroptotic Pathways via TrxR1 and Gpx4 Inhibition” (J Med Chem, 2024)
Activity calls are given as the source filed them. The rule behind the calls is not given here.

What was measured:
HEK293 = experiment: Antiproliferative activity against human HEK293 cells assessed as cell viability upto 50 nM incubated for 48 hrs by MTT assay; format: toxicity, cell-based; settings: hek293, 48 h, 0.05 µM
MDA-MB-468 [1] = experiment: Antiproliferative activity against human MDA-MB-468 cells assessed as cell viability at 10 nM incubated for 48 hrs by MTT assay; format: functional, cell-based
A549 = experiment: Antiproliferative activity against human A549 cells assessed as cell viability at 10 nM incubated for 48 hrs by MTT assay; format: functional, cell-based
MDA-MB-468 [2] = experiment: Induction of ferroptosis in human MDA-MB-468 cells assessed as increase in cell viability at 25 nM incubated for 48 hrs; format: functional, cell-based

Compound | Activity (HEK293) | Activity (MDA-MB-468 [1]) | Activity (A549) | Activity (MDA-MB-468 [2])
CCCCCCC[C@@H]1CC(=O)N[C@H](CC(C)C)C(=O)N[C@H]2CSSC[C@H](NC2=O)C(=O)O1 | Non-toxic | – | – | –
CC[C@@H]1CC(=O)N[C@H](Cc2ccccc2)C(=O)N[C@H]2CSSC[C@H](NC2=O)C(=O)O1 | Non-toxic | Active | Active | –
O=C1C[C@@H](c2ccccc2)OC(=O)[C@@H]2CSSC[C@H](NC(=O)[C@@H](Cc3ccccc3)N1)C(=O)N2 | Non-toxic | Active | Active | –
CCCCCCC[C@@H]1CC(=O)NCC(=O)N[C@H]2CSSC[C@H](NC2=O)C(=O)O1 | Non-toxic | – | – | –
CCCCCCC[C@@H]1CC(=O)N[C@H](CO)C(=O)N[C@H]2CSSC[C@H](NC2=O)C(=O)O1 | Non-toxic | – | – | –
CCOC(=O)c1ccc(NC2CCCCC2)c(N)c1 | – | – | – | Active
CC(C)(C)OC(=O)N[C@@H]1CSSC[C@@H](C(=O)OC(C)(C)C)NC1=O | Non-toxic | – | – | –
CCCCCCC[C@H]1CC(=O)N[C@H](Cc2ccccc2)C(=O)N[C@H]2CSSC[C@H](NC2=O)C(=O)O1 | Non-toxic | – | – | –
